The assay concerns the target T1, human CMKLR1 (Homo sapiens, UniProt Q99788).
T1 construct: host or cells: HEK293A (Invitrogen), stably expressing human Gα15
T1 sequence (Q99788 1-373): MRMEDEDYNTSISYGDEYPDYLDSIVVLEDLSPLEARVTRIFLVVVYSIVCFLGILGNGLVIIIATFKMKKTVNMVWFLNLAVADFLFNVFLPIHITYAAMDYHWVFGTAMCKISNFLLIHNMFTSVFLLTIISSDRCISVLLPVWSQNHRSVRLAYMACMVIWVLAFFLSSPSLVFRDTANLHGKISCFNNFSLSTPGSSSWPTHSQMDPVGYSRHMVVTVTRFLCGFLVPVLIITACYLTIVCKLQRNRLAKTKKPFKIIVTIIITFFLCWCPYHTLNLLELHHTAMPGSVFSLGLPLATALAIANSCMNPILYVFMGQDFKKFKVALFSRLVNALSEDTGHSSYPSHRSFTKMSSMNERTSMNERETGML
The assay can be described thus: Ca2+ mobilization (CellLux imaging) agonist assay in HEK293A cells expressing CMKLR1 and Gα15. Format: cell-based. The settings on record: for EC50: NR where no EC50 is given, read-out: EC50. As for the experimental part: HEK293A cells (Invitrogen) expressing CMKLR1 and Gα15 were seeded at 5*10^4 cells/well in a poly-D-lysine coated 96-well black well/clear bottom plate (BD Falcon) and cultured overnight. From eighteen to twenty-four hours later, cells were loaded with FLUO4-AM (Invitrogen). Then the cells were washed two times with C1 solution (130 mM NaCl, 5 mM KCl, 10 mM HEPES pH 7.4, 2 mM CaCl2, and 10 mM Glucose). After the final wash, a 100 µL of residual volume remained on the cells. Peptides were dissolved in 10% DMSO to a concentration of 1 mM and were diluted in C1 solution with 0.1 % BSA. They were aliquoted as 2x solutions in 96-well plates and were simultaneously transferred by the robotic system within the imager from the ligand plate to the cell plate. […] Fluorescence data was generated in duplicate and experiments were repeated for at least three times. […] For the calculation of concentration-response curves, signals of two wells receiving the same concentration of test substances were averaged and the fluorescence changes of corresponding buffer C1 wells were subtracted. Signals were normalized to background fluorescence. For the calculation of EC50 values, plots of amplitude versus concentrations were prepared in SigmaPlot 11.
A general note: Calcium flux is commonly read through the fluorescence of an indicator in the cells.

[1] abbreviates: Ca2+ mobilization, CMKLR1, decimal comma.

Read-outs that look alike come from different tables or passages of the source. Square brackets hold non-standard residues; d marks the D form. Ends that are not written are not given here. Peptide text beside a SMILES is read from it.

Usually EC50 stands for the concentration giving half of the maximal effect. Take `CC[C@H](C)[C@H](NC(=O)CNC(=O)[C@@H]1CCCN1C(=O)[C@H](Cc1ccccc1)NC(=O)[C@@H](N)Cc1ccc(O)cc1)C(=O)N[C@@H](Cc1ccccc1)C(=O)N[C@@H](C)C(=O)N[C@H](Cc1ccccc1)C(=O)N[C@@H](CO)C(N)=O` [compound 10] (H-YFPGIFA[dF]S-NH2; N-terminus assumed): under setting [1], the max response is on record as 1,48 DF/F0 and the EC50 turned out to be 2220 nM. For `C[C@H](NC(=O)[C@H](CO)NC(=O)[C@H](Cc1ccccc1)NC(=O)[C@H](C)NC(=O)[C@H](Cc1ccccc1)NC(=O)[C@H](CCC(N)=O)NC(=O)[C@@H](N)Cc1ccccc1)C(=O)N[C@@H](Cc1ccccc1)C(=O)N[C@H](CO)C(=O)O` [compound 103] (H-FQFAFSAF[dS]-OH; N-terminus assumed), in that order: 1,76 DF/F0 and 194 nM. `CSCC[C@H](NC(=O)[C@@H](N)Cc1ccc(O)cc1)C(=O)N1CCC[C@H]1C(=O)NCC(=O)N[C@@H](CCC(N)=O)C(=O)N[C@@H](Cc1ccccc1)C(=O)N[C@@H](C)C(=O)N[C@@H](Cc1ccccc1)C(=O)N[C@H](CO)C(=O)O` [compound 40] (H-YMPGQFAF[dS]-OH; N-terminus assumed): the max response was 0,74 DF/F0. In the case of YFPGQFAFQ-OH [compound 50], under setting [1], the max response is recorded as 1,04 DF/F0 and the EC50 was 52.6 nM. The like results for `NC(=O)CC[C@H](NC(=O)CNC(=O)[C@@H]1CCCN1C(=O)[C@H](Cc1ccccc1)NC(=O)[C@H](N)Cc1ccccc1)C(=O)N[C@@H](Cc1c[nH]c2ccccc12)C(=O)NCC(=O)N[C@@H](Cc1ccccc1)C(=O)N[C@@H](CO)C(N)=O` [compound 12] (H-[dF]FPGQWGFS-NH2; N-terminus assumed) were, in that order, 1,56 DF/F0 and 3010 nM. For `C[C@H](NC(=O)[C@H](Cc1c[nH]c2ccccc12)NC(=O)[C@H](CCC(N)=O)NC(=O)CNC(=O)[C@@H]1CCCN1C(=O)[C@H](Cc1c[nH]c2ccccc12)NC(=O)[C@@H](N)Cc1ccc(O)cc1)C(=O)N[C@H](Cc1ccccc1)C(=O)N[C@@H](CS)C(N)=O` [compound 22] (H-YWPGQWA[dF]C-NH2; N-terminus assumed), in that order: 0,44 DF/F0 and 18600 nM. The like results for `C[C@H](N)C(=O)N[C@H](Cc1c[nH]c2ccccc12)C(=O)N1CCC[C@H]1C(=O)NCC(=O)N[C@@H](CCC(N)=O)C(=O)N[C@@H](Cc1ccccc1)C(=O)N[C@@H](C)C(=O)N[C@H](Cc1ccc(O)cc1)C(=O)N[C@@H](CO)C(N)=O` [compound 21] (H-A[dW]PGQFA[dY]S-NH2; N-terminus assumed) were, in that order, 0,30 DF/F0 and 16500 nM.

As to `CC(C)C[C@H](NC(=O)[C@@H](N)Cc1ccc(O)cc1)C(=O)N1CCC[C@H]1C(=O)NCC(=O)N[C@@H](CCC(N)=O)C(=O)N[C@@H](Cc1ccc(O)cc1)C(=O)N[C@@H](C)C(=O)N[C@@H](Cc1ccccc1)C(=O)N[C@H](CO)C(=O)O` [compound 81] (H-YLPGQYAF[dS]-OH; N-terminus assumed), the max response under setting [1] was 1,73 DF/F0. Turning to FLPGQFAFS-NH2 [compound 3], under setting [1], the max response was 1,77 DF/F0 and the EC50 is 41.3 nM.

Take `CC(C)C[C@H](NC(=O)[C@H](Cc1ccc(O)cc1)NC(=O)[C@@H](Cc1ccccc1)NC(=O)[C@@H]1CCCN1C(=O)[C@H]1CCCN1C(=O)[C@@H]1CCCN1C(=O)[C@H](CC(C)C)NC(=O)[C@@H](N)Cc1ccc(O)cc1)C(=O)N1CCC[C@H]1C(=O)O` [compound 152] (H-YLP[dP]P[dF]YLP-OH; N-terminus assumed): under setting [1], the max response is given as 1,7 DF/F0 and the EC50 amounted to 302 nM. As to YYPGQYAYS-NH2 [compound 17], under setting [1], the max response is 1,09 DF/F0 and the EC50 turned out to be 4360 nM. The like results for FLPGQFAFK-OH [compound 67] were, in that order, 0,73 DF/F0 and 1240 nM. With YFPGHFAFS-NH2 [compound 7], under setting [1], the max response is on record as 1,55 DF/F0.

The values are drawn from publication PMC3351444, “Molecular Evolution of a Peptide GPCR Ligand Driven by Artificial Neural Networks” (PLoS ONE, 2012).
